pIC50: −log10 of the molar value.

In this assay the target is T1, RORγ receptor (Homo sapiens, UniProt P51449).
T1 construct: Jurkat pEx/Gal/hRORγ CLBD/HYG pG51uc/blast; expressed in transfected cells
T1 sequence (P51449 269-508 limits assumed): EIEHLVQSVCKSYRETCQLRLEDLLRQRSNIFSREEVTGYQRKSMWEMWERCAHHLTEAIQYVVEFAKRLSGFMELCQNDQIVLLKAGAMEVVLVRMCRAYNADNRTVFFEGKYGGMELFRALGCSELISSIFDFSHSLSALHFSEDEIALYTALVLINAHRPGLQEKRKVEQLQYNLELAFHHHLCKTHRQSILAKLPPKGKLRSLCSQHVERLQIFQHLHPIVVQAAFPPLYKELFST
Briefly: General RORγ Gal4 reporter assay (inverse agonist activity, inhibition of luminescence). Type of assay: cell-based. To be noted: Gal4-luciferase reporter in Jurkat cells stably over-expressing hRORγ LBD; overnight incubation; 40 μM to 0.67 nM. The procedure: General RORγ Gal4 Reporter Assay Inverse agonist activity of potential ligands to RORγ was measured by inhibition of luminescence in a Gal4-luciferase reporter assay in Jurkat cells.
The following day, cells were lysed with 10 μL of Steady-Glo Luciferase Assay System (Promega Cat. No. EZ550), and analyzed immediately. IC50 values were determined.
Background: A reporter such as luciferase makes a cellular process visible.

As usually defined, the pIC50 is −log10 of the IC50, conventionally taken in molar units. The low end stands for a high IC50, the high end for a low IC50. The compound `CC(C)(O)CN1C(=O)[C@H](F)C[C@@H]1C(=O)N1CCC2(S(=O)(=O)c3ccc(F)cc3)c3ccc(C(F)(C(F)(F)F)C(F)(F)F)nc3CCC12` (single isomer, unassigned) [Example 44] gave a pIC50 of 6.77.
For `O=C(CC1(O)CCS(=O)(=O)C1)N1CCC2(S(=O)(=O)c3ccc(F)cc3)c3ccc(C(F)(C(F)(F)F)C(F)(F)F)nc3CCC12` (centres unmarked) [Example 10] the value was 7.48.
As for `O=C1N[C@H](C(=O)N2CCC3(S(=O)(=O)c4cccc(F)c4)c4cnc(C(F)(C(F)(F)F)C(F)(F)F)cc4CCC23)[C@H]2C[C@@H]12` (some centres unmarked) [Example 35], the figure is 5.48; as for `N#CCCN1C(=O)CC[C@H]1C(=O)N1CCC2(S(=O)(=O)c3ccc(F)cc3)c3ccc(OCc4c(Cl)cccc4Cl)nc3CCC12` (single isomer, unassigned) [Example 39], 7.82; as for `CC(C)(O)CN1C(=O)CCN1C(=O)N1CCC2(S(=O)(=O)c3ccc(F)cc3)c3ccc(C(F)(C(F)(F)F)C(F)(F)F)nc3CCC12` (single isomer, unassigned) [Example 54, 1-(9b-((4-fluorophenyl)sulfonyl)-7-(perfluoropropan-2-yl)-2,3,3a,4,5,9b-hexahydro-1H-pyrrolo[3,2-f]quinoline-3-carbonyl)-2-(2-hydroxy-2-methylpropyl)pyrazolidin-3-one], 7.80.
As for `NC(=O)C12CCC(C(=O)N3CCC4(S(=O)(=O)c5ccc(F)cc5)c5ncc(C(F)(C(F)(F)F)C(F)(F)F)cc5CCC34)(CC1)CC2` (centres unmarked) [Example 7], the figure is 7.08; as for `C[C@H]1C[C@H](C(=O)O)CC[C@H]1C(=O)N1CCC2(S(=O)(=O)c3cccc(F)c3)c3cnc(C(F)(C(F)(F)F)C(F)(F)F)cc3CCC12` (some centres unmarked) [Example 27], 7.68.
Turning to `CC(C)(O)CN1C(=O)[C@H](F)C[C@H]1C(=O)N1CCC2(S(=O)(=O)c3cccc(F)c3)c3ccc(C(F)(C(F)(F)F)C(F)(F)F)nc3CCC12` (some centres unmarked) [Example 48], the pIC50 was 7.59.
For `O=C(CC1(O)CCS(=O)(=O)C1)N1CCC2(S(=O)(=O)c3ccccc3)c3ccc(C(F)(C(F)(F)F)C(F)(F)F)nc3CCC12` (centres unmarked) [Example 11] the value was 7.68; for `CC(C)(O)CN1C(=O)[C@H](F)C[C@H]1C(=O)N1CCC2(S(=O)(=O)c3ccccc3)c3ccc(C(F)(C(F)(F)F)C(F)(F)F)nc3CCC12` (some centres unmarked) [Example 53], 7.74.
Consider `C[C@H]1C[C@H](C(N)=O)CC[C@H]1C(=O)N1CCC2(S(=O)(=O)c3ccc(F)cc3)c3ncc(C(F)(C(F)(F)F)C(F)(F)F)cc3CCC12` (single isomer, unassigned) [Example 59], for which the negative logarithm of the IC50 (pIC50) was 6.23. This pIC50 lies 1.51 log units lower than the previous one.
As for `CC(C)(O)CC(=O)N1CCC2(S(=O)(=O)c3ccccc3)c3ccc(C(F)(C(F)(F)F)C(F)(F)F)nc3CCC12` (centres unmarked) [Example 18], the figure is 7.52; as for `O=C(C1CCS(=O)(=O)CC1)N1CCC2(S(=O)(=O)c3ccccc3)c3ccc(C(F)(C(F)(F)F)C(F)(F)F)nc3CCC12` (centres unmarked) [Example 12], 8.05; as for `CC(C)(O)CN1C(=O)[C@H](F)C[C@@H]1C(=O)N1CCC2(S(=O)(=O)c3ccc(F)cc3)c3cnc(C(F)(C(F)(F)F)C(F)(F)F)cc3CCC12` (some centres unmarked) [Example 45], 6.28.
As for `N#CCCN1C(=O)CC[C@H]1C(=O)N1CCC2(S(=O)(=O)c3cccc(F)c3)c3ccc(C(F)(C(F)(F)F)C(F)(F)F)nc3CCC12` (some centres unmarked) [Example 21], the figure is 7.96; as for `O=C(C1CCS(=O)(=O)CC1)N1CCC2(S(=O)(=O)c3cccc(F)c3)c3ccc(C(F)(C(F)(F)F)C(F)(F)F)nc3CCC12` (centres unmarked) [Example 22], 8.05; as for `O=C(O)C1CC2(C1)CC(C(=O)N1CCC3(S(=O)(=O)c4ccc(F)cc4)c4ncc(C(F)(C(F)(F)F)C(F)(F)F)cc4CCC13)C2` (centres unmarked) [Example 9], 7.06.
As for `N#CCCN1C(=O)CC[C@H]1C(=O)N1CCC2(S(=O)(=O)c3ccc(F)cc3)c3cnc(OCc4ccccc4)cc3CCC12` (single isomer, unassigned) [Example 38], the figure is 5.37; as for `O=C(C1CCS(=O)(=O)CC1)N1CCC2(S(=O)(=O)c3cccc(F)c3)c3cnc(C(F)(C(F)(F)F)C(F)(F)F)cc3CCC12` (centres unmarked) [Example 15], 8.10; as for `CC(C)(O)CN1C(=O)CCN1C(=O)N1CCC2(S(=O)(=O)c3ccc(F)cc3)c3cnc(C(F)(C(F)(F)F)C(F)(F)F)cc3CCC12` (centres unmarked) [Example 55], 7.51.
Consider `O=C([C@@H]1CCC(=O)N1Cc1ccc(F)cc1)N1CCC2(S(=O)(=O)c3ccc(F)cc3)c3ncc(C(F)(C(F)(F)F)C(F)(F)F)cc3CCC12` (some centres unmarked) [Example 3], for which the pIC50 is 7.21.
As for `C[C@H]1C[C@H](C(=O)O)CC[C@H]1C(=O)N1CCC2(S(=O)(=O)c3ccc(F)cc3)c3cnc(C(F)(C(F)(F)F)C(F)(F)F)cc3CCC12` (some centres unmarked) [Example 30], the figure is 7.29.
For `O=C(O)C12CCC(C(=O)N3CCC4(S(=O)(=O)c5ccc(F)cc5)c5ncc(C(F)(C(F)(F)F)C(F)(F)F)cc5CCC34)(CC1)CC2` (centres unmarked) [Example 6] the value was 7.27; for `O=C(N1CCC2(S(=O)(=O)c3ccccc3)c3ccc(OCc4c(Cl)cccc4Cl)nc3CCC12)C(F)(F)F` (single isomer, unassigned) [Example 61], 6.10; for `O=C(O)[C@H]1CC[C@H](C(=O)N2CCC3(S(=O)(=O)c4ccccc4)c4ccc(C(F)(C(F)(F)F)C(F)(F)F)nc4CCC23)CC1` (some centres unmarked) [Example 28], 8.10.
For `[2H]C([2H])([2H])N1C(=O)[C@H](F)C[C@H]1C(=O)N1CCC2(S(=O)(=O)c3ccc(F)cc3)c3ncc(C(F)(C(F)(F)F)C(F)(F)F)cc3CCC12` (some centres unmarked) [Example 2] the value was 7.16.

The values are drawn from US10934286B2, “Heterocyclic sulfones as ROR gamma modulators” (BRISTOL-MYERS SQUIBB COMPANY, priority 2016, dated 2021).
